Tests used:
[1] = tested on: Stop-POST5 complex (RFC-dependent termination); experiment: smTIRF assay of RFC-dependent peptide and tRNA release; assay type: biochemical, shrimp (Artemia salina)
Experimental: Immobilization of ribosome Stop-POST 5 complexes. PEGylated flow chambers were incubated in 0.5 mg/ml streptavidin for 5 mins and washed with Buffer 4. Biotinylated Stop-POST5 containing FK(atto647)VRQ-tRNA^Gln (Cy3) in the P-site, was formed at room temperature by incubating Stop-POST4, eEF1A, GTP, and Gln-(Cy3)tRNA^Gln for 5 mins and then injected into the streptavidin-coated slide chamber. After a 5 min incubation, excess unbound ribosome was flowed out. Then eRF1/eRF3±TRIDs was injected dynamically at 3 sec while recording. The injection dead time was subtracted for each particle.
Single-molecule fluorescence imaging. All sm-TIRF studies were carried out at 24° C. All dilutions, complex formation, and single-molecule imaging were carried out in Buffer 4 with an added enzymatic oxygen scavenging system of 2 mM protocatechuic acid (PCA), 50 nM protocatechunate 3,4 dioxygenase (PCD, Sigma Aldrich), 1 mM cyclooctatetraene (COT, Sigma Aldrich), 1 mM 4-nitrobenzyl alcohol (NBA, Sigma Aldrich), and 1.5 mM 6-hydroxy-2,5,7,8-tetramethyl-chromane-2-carboxylic acid (Trolox, Sigma-Aldrich) (Flis et al., Cell reports, 25(10), 2676-2688 (2018).
Image stacks were recorded at 100 ms frame rate on a custom-built objective-type total internal reflection fluorescence (TIRF) microscope based on a commercial inverted microscope (Eclipse Ti-E, Nikon) and capable of performing alternating-laser excitation (ALEX) between 532 nm and 640 nm laser beams using an acousto-optic tunable filter (AOTF, Chen et al., 2011). For the time-lapse experiment, timing of the movies, programmed into NIS-Elements (Nikon) microscope software, were recorded by illuminating the sample for 50-20 frames at 10 frames per s with 15 s or […] intervening dark intervals. Video recording was started and then eRF1/eRF3±TRIDs was injected from a triggered syringe pump at 3 sec while recording. The injection dead time was subtracted for each particle. Triggering of the shutters, AOTF, and pump was synchronized using LabView scripts driven from the camera exposure signal.
Data analysis. Collected movies were analyzed by a custom-made software program developed as an ImageJ plugin (Chen et al., Mol. Cell, 42, 367-377 (2011)), and further analyzed using Python. Distributions of peptide and tRNA dissociation times were fit to eq (5), using maximum likelihood estimation (Bevington and Robinson. Data Reduction and Error Analysis for the Physical Sciences. New York: McGraw-Hill, (2002); Woody et al., Biophys. J. 111, 273-282 (2016)), where P is the probability density.
smTIRF results using Atto(pep)-Cy-Stop-POST5 attached to surface-immobilized ribosomes. Although the distance between the two fluorophores is not close enough to produce FRET, fluorescent pairs could be identified by co-localization on the slide under alternating 532 nm and 640 nm total internal reflection fluorescence (TIRF) illumination. This permits near-simultaneous monitoring of the dynamics of peptide and P-site tRNA release from the Stop-POST5 complex following RFC binding.
To reduce photobleaching of each fluorophore, time-lapse movies were recorded with bursts of 20 or 50 frames at 100 ms frame intervals interleaved by 20 s intervals with the lasers shuttered. Total recording time for each trial was 20 min.
FIG. 8A and FIG. 8C show typical frame by frame recordings indicating a loss of signal for both labeled peptide and labeled tRNA after the addition of the RFC to Atto(pep)-Cy(tRNA)-Stop-POST5. Either peptide (a) or tRNA (b) can dissociate first, in approximately equal proportions. Photobleaching of Cy3-labeled tRNA and Atto647-labeled peptide in the absence of eRF1/eRF3 was much slower (FIG. 8E and FIG. 8F). Under the time lapse illumination employed, mean lifetimes for Atto647-peptide and Cy3-tRNA at 0.32 μM eRF1 and 2 μM eRF3 were each 2.45 min. […]

[2] = tested on: POST5 complex (eRF1 & 3 peptide release); experiment: Fluorometer anisotropy measurement of POST5 complex Stop IRES-Lys*; assay type: biochemical; settings: 0.1 μM POST5, eRF1 0.1 μM, eRF3 0.2 μM, GTP 2.0 mM, 25° C.
Experimental: Fluorometer measurements of POST5 complex Stop IRES-Lys* included the following treatment methods and components:
POST5 complex was treated with ternary complexes of release factor 1 and 3 and GTP. Lys was labeled with the fluorescent label Atto647. Conditions for the assay were as follows: at 25° C., Buffer condition included 0.1 μM POST 5. Release factor 1 and 3 (eRF1 & 3) POST 5 condition included 0.1 μM POST5; eRF1 at 0.1 μM; eRF3 at 0.2 μM; and GTP at 2 mM. Release factor 1 and 3 (eRF1 & 3) POST 5 and ataluren condition included 0.1 μM POST5; eRF1 at 0.1 μM; eRF3 at 0.2 μM; GTP at 2.0 mM; and Ataluren at […].

[3] = tested on: Cy5-hRF1.hRF3.GTP binding to Stop-POST5; experiment: smFRET Cy5-hRF1.hRF3.GTP binding to Stop-POST5; parameters: species or system human; settings: ataluren 1 mM, FIG. 15C
Excerpt: Several important results have been obtained with Cy5-heRF1 which further elucidate the mechanism of termination shown in FIGS. 14A and 14B. Cy5-heRF1 forms a catalytically active RFC with unlabeled heRF3, which, when added to the Stop-POST5 complex, generated a transient FRET signal with FKVRQ-tRNA^Gln(Cy3) bound in the P-site (FIGS. 15A and 15B).

[4] = 0.081 μM RFC, 1000 μM ataluren added 4-25 s later, 24° C.

O=C(O)c1cccc(-c2noc(-c3ccccc3F)n2)c1 [Ataluren]
mode of inhibition of RFC [1]: apparent competitive inhibitor
effect on CC value of peptide and tRNA lifetimes ([1]; 0.032 μM RFC and 1 mM ataluren, FIG. 10C): did not change the CC value
rate constant for elimination of ataluren's inhibitory effect after RFC addition, peptide [1, 4]: 9.6 ± 2.6 min⁻¹
rate constant for elimination of ataluren's inhibitory effect after RFC addition, tRNA [1, 4]: 10.8 ± 3.6 min⁻¹
effect on Vmax values at high RFC concentration ([1]; 200, 500, 1000 μM ataluren): little affected
KA, inhibition of pentapeptide release rate constants ([1]; measured by both smTIRF and fluorescence anisotropy, eRF1 32 nM, FIG. 9H): 250 ± 20 µM
KA, inhibition of tRNA release ([1]; smTIRF): 180 ± 10 µM
effects on the rates of peptide and tRNA release ([1]; steps after tRNA-peptide bond cleavage): no direct effects
effect on peptide release (fluorescence anisotropy change) [2]: inhibited peptide release
effect on rate of Cy5-hRF1.hRF3.GTP binding to Stop-POST5 [3]: strongly inhibited
